Experimental findings from article PMC10073475, “Effect of mTOR inhibitors on sodium taurocholate cotransporting polypeptide (NTCP) function in vitro” (Frontiers in Pharmacology, 2023) are described below.

The structures appear in SMILES notation.

Assay [1] has as its target T1, sodium taurocholate cotransporting polypeptide (NTCP) (Homo sapiens, UniProt Q14973).
T1 construct: gene SLC10A1; GFP-tagged human NTCP (NM_003049)
T1 sequence (Q14973 1-349): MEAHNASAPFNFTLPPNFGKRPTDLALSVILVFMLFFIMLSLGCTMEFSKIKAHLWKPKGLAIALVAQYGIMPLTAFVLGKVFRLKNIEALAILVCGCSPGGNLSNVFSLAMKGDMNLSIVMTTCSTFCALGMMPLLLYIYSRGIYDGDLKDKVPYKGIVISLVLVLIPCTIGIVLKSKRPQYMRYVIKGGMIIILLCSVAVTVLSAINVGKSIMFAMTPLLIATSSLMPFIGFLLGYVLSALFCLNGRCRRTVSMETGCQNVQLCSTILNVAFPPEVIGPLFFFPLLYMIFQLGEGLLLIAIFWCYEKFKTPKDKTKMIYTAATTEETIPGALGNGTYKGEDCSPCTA
Briefly: [3H]-taurocholate uptake inhibition in NTCP-GFP Flp-In T-REx […] cells (IC50 […] in differentiated HuH-7). It counts as cell-based.

The target of assay [2] is T1, sodium taurocholate cotransporting polypeptide (NTCP). Briefly: [3H]-taurocholate uptake inhibition at […] in NTCP-GFP Flp-In T-REx […] and differentiated HuH-7 cells. It counts as cell-based.

A word on the IC50: it is the concentration needed to halve the response being measured. A high value points to weaker potency. As for `CO[C@H]1C[C@@H]2CC[C@@H](C)[C@@](O)(O2)C(=O)C(=O)N2CCCC[C@H]2C(=O)O[C@H]([C@H](C)C[C@@H]2CC[C@@H](OCCO)[C@H](OC)C2)CC(=O)[C@H](C)/C=C(\C)[C@@H](O)[C@@H](OC)C(=O)[C@H](C)C[C@H](C)/C=C/C=C/C=C/1C` [everolimus], the 50% inhibitory concentration (IC50) in assay [1] was 6.7 ± 1.3 µM.
Take `CO[C@H]1C[C@@H]2CC[C@@H](C)[C@@](O)(O2)C(=O)C(=O)N2CCCC[C@H]2C(=O)O[C@H]([C@H](C)C[C@@H]2CC[C@@H](OC(=O)C(C)(CO)CO)[C@H](OC)C2)CC(=O)[C@H](C)/C=C(\C)[C@@H](O)[C@@H](OC)C(=O)[C@H](C)C[C@H](C)/C=C/C=C/C=C/1C` [temsirolimus]: the “[3H]-taurocholate uptake inhibition at 10 μM in NTCP-GFP Flp-In T-REx 293 and di” value in assay [2] is “everolimus, sirolimus and temsirolimus significantly inhibited TCA accumulation in Na^+-containing ECF buffer and NTCP-mediated TCA accumulation”.
